In assay [1] the test system is pulmonary fibrosis induced by bleomycin in mice. In words: mRNA levels of fibrosis-related markers in lung tissue (qRT-PCR). Format: in vivo, mouse. The conditions noted are these: 60, 90 mg/kg. The method, then:
About 30 mg of cryopreserved lung tissue was weighed and homogenized and lysed by adding 200 μL of Trizol (Takara, 9109 #). The fluid after the lysis in the well was collected by the RNA sterilization-grade pipette tip and transferred to the corresponding sterile EP tube. […] of chloroform was added, shaken vigorously for 30 sec, and centrifuged for 15 minutes in a centrifuge at 4° C. at 12000 rpm. The upper aqueous layer was transferred to a new EP tube, an equal volume of isopropanol was used to precipitate the RNA in the aqueous phase, and the tube was allowed to stand at −20° C. for more than 1 hr. And then the tube was centrifuged for 15 min at 4° C. at 12000 rpm, and the supernatant was discarded. 75% ethanol was added to wash the RNA pellet, and then the tube was centrifuged for 15 min at 4° C. at 12000 rpm, and the supernatant was discarded. The tube was placed at room temperature for 10-20 min to dry the RNA pellet. 25-200 μL of RNase-free water was added for dissolution and stored at −80° C.
PrimeScript™ RT Master Mix (Takara, RR036A) was selected for mRNA reverse transcription. Please refer to the instructions for the system. In short, 1 μg of mRNA was added to a 20 μL system, mixed and then kept at a constant temperature in a 37° C. water bath for 15 minutes, and then the enzyme was inactivated at 85° C. for 5 seconds. After centrifugation, double distilled water was used to dilute 10 times.
Q-PCR technology used 2×SYBR Green qPCR Master Mix (B21202, Biomake), and the reaction system could be prepared according to the instruction (10 μL of 2×SYBGreen, 8.8 μL of cDNA template, 1.2 μL of 5 μM primer Mix). The reaction conditions are: pre-denaturation at 95° C. for 5 min, denaturation at 95° C. for 30 sec, annealing at 60° C. for 30 sec, and extension at 72° C. for 30 sec, the number of reaction cycles is 40 cycles.
The experiment used qRT-PCR technology to determine the mRNA levels of fibrosis-related markers in lung tissue.
The experimental method was the same as that for the evaluation of the mRNA levels of inflammatory cytokines.

Assay [2] concerns the target FGFR-1 (Homo sapiens (Human), UniProt P11362). The assay is described as follows: Enzyme selectivity test (ELISA), FGFR-1. Format: biochemical. On the procedure:
(§1) 1) Enzyme reaction substrate Poly(Glu, Tyr) 4:1 was diluted to 20 μg/mL with potassium-free PBS (10 mM sodium phosphate buffer, 150 mM NaCl, pH 7.2-7.4), and the microtiter plate was coated with 125 μL/well and placed at 37° C. for 12-16 hours of reaction. The liquid in the well was discard. The plate was washed three times with T-PBS (potassium-free PBS containing 0.1% Tween-20, 200 μL/well), 5 minutes each time. The ELISA plate was dried in an oven at 37° C. for 1 to 2 hours.
(§2) 2) Reaction buffer (50 mM HEPES pH 7.4, 50 mM MgCl2, 0.5 mM MnCl2, 0.2 mM Na3VO4, 1 mM DTT) diluted ATP solution (49 μL) was added to each well, 1 μL of the compound to be tested was added to each well, and then 50 μL of DDR2 kinase domain recombinant protein diluted in the reaction buffer was added to start the reaction. Two control wells without ATP were set in each experiment. The plate placed on a shaker (100 rpm) at 37° C. for 1 hour of reaction. The liquid in the well was discarded and the plate was washed three times with T-PBS.
(§3) 3) Antibody PY99 dilution solution (the antibody was diluted 1:500 with T-PBS containing BSA 5 mg/mL) was added at 100 μL/well, and shaken on a shaker at 37° C. for 0.5 hour of reaction. The liquid in the well was discarded and the plate was washed three times with T-PBS.
(§4) 4) Horseradish peroxidase labeled goat anti-murine secondary antibody dilution solution (the antibody is diluted 1:2000 with T-PBS containing BSA 5 mg/ml) was added at 100 μL/well, and shaken on a shaker at 37° C. for 0.5 hour of reaction. The liquid in the well was discarded and the plate was washed three times with T-PBS.
(§5) 5) 2 mg/ml of OPD color developing solution [diluted with 0.1 M citric acid-sodium citrate buffer (pH=5.4) containing 0.03% H2O2] was added at 100 μL/well and reacted for 1 to 10 minutes at 25° C. in the dark.
(§6) 6) 2M H2SO4 was added at 50 μL/well to stop the reaction, and a tunable wavelength microplate reader VERSAmax was used for reading at a wavelength of 490 nm.
(§7) The IC50 value was obtained by four-parameter regression using the software that came with the microplate reader. […]

Assay [3] deals with Met (Homo sapiens (Human), UniProt P08581). In words: Enzyme selectivity test (ELISA), Met. Format: biochemical. The method, then:
as §1, §2, §3, §4, §5, §6, §7

Assay [4] addresses ALK (Homo sapiens (Human), UniProt Q9UM73). In words: Enzyme selectivity test (ELISA), ALK. Format: biochemical. On the procedure:
as §1, §2, §3, §4, §5, §6, §7

Assay [5] deals with Flt-3 (Homo sapiens (Human), UniProt P36888). The assay is described as follows: Enzyme selectivity test (ELISA), Flt-3. It counts as biochemical. The method, then: as §1, §2, §3, §4, §5, §6, §7
Sequence of Flt-3 (P36888 27-993, species assumed): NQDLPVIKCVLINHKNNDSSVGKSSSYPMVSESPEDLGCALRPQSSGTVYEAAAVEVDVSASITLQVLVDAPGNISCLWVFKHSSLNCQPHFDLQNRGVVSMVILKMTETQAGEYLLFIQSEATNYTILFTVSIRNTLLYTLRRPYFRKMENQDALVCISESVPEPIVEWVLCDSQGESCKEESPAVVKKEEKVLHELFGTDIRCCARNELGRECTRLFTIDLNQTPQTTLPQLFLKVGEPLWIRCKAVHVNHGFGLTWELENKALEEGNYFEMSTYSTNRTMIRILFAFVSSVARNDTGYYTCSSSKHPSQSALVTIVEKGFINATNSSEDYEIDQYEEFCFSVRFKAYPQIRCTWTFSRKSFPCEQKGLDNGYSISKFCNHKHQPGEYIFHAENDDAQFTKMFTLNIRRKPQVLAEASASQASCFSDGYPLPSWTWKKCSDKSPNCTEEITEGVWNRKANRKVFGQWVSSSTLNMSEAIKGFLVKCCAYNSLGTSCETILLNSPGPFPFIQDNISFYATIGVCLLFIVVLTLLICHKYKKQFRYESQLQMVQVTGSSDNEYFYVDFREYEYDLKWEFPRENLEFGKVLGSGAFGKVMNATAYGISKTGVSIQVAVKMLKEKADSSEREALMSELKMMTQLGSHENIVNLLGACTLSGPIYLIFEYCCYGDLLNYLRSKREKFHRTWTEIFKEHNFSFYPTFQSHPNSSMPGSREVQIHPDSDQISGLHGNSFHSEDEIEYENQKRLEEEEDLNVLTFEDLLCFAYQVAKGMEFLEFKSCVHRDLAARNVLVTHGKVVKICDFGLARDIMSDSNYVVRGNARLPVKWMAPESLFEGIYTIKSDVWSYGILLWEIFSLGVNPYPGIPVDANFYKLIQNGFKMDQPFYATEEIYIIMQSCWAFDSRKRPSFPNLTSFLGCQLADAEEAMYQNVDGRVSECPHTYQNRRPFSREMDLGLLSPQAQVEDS

This is an account of results in patent US11655239B2 (SHANGHAI INSTITUTE OF MATERIAL MEDICA, CHINESE ACADEMY OF …, priority 2019, dated 2023).

Sequence of Met (P08581 25-1390): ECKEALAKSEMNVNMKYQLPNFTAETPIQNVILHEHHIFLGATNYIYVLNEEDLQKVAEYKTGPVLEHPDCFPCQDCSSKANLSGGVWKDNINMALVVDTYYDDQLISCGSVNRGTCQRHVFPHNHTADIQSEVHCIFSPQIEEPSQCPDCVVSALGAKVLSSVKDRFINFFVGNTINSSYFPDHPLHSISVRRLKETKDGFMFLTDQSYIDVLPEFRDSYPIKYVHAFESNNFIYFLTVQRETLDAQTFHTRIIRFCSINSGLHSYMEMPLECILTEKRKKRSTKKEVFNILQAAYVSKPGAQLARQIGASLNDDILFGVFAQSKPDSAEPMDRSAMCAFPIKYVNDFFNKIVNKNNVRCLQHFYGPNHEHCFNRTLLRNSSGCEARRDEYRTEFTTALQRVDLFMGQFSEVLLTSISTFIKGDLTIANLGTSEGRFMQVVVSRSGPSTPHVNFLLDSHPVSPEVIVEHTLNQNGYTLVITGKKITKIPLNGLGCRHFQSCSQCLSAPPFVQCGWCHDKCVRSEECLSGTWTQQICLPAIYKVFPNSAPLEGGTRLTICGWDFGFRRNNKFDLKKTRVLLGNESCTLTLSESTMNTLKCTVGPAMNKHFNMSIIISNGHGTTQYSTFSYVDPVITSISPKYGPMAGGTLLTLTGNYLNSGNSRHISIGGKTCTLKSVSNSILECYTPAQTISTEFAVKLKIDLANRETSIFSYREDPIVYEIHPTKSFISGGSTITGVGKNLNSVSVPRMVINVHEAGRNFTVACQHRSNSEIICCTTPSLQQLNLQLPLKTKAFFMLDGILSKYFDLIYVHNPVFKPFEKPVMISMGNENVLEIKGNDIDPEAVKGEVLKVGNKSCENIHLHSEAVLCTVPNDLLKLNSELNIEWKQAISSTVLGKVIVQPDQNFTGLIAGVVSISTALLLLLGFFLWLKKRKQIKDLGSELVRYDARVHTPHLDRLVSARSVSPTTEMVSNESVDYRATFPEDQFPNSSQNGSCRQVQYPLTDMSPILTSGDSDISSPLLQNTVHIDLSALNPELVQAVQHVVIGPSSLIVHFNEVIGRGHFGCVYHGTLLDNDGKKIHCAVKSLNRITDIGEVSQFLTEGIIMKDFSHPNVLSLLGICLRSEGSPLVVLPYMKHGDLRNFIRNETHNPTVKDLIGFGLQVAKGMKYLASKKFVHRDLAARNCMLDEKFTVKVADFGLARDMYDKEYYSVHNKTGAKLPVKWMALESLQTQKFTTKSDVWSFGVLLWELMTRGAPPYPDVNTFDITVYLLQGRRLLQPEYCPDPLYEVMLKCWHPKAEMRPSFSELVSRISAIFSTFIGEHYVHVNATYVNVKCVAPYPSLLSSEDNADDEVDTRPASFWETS
Sequence of FGFR-1 (P11362 22-822, species assumed): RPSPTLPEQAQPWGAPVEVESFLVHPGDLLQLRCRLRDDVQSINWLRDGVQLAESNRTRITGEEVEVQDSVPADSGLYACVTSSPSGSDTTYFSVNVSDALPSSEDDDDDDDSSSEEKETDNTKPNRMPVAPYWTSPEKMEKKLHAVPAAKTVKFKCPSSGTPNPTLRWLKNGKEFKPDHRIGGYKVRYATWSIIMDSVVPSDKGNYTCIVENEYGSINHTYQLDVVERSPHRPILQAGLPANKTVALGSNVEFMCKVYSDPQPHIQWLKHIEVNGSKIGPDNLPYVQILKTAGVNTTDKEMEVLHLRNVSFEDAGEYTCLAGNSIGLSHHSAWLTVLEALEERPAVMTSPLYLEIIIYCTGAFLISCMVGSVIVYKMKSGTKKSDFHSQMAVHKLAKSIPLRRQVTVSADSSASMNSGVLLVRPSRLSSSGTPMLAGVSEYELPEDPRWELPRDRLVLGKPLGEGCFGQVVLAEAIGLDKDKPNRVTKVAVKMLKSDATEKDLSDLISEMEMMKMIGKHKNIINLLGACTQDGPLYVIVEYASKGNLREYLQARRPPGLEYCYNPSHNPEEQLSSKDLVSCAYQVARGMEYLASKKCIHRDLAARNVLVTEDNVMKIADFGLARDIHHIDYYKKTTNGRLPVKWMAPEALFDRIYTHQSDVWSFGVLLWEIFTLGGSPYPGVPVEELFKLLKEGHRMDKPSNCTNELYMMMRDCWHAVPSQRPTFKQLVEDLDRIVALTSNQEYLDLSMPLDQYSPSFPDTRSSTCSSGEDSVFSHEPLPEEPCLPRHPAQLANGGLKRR
Sequence of ALK (Q9UM73 19-1620, species assumed): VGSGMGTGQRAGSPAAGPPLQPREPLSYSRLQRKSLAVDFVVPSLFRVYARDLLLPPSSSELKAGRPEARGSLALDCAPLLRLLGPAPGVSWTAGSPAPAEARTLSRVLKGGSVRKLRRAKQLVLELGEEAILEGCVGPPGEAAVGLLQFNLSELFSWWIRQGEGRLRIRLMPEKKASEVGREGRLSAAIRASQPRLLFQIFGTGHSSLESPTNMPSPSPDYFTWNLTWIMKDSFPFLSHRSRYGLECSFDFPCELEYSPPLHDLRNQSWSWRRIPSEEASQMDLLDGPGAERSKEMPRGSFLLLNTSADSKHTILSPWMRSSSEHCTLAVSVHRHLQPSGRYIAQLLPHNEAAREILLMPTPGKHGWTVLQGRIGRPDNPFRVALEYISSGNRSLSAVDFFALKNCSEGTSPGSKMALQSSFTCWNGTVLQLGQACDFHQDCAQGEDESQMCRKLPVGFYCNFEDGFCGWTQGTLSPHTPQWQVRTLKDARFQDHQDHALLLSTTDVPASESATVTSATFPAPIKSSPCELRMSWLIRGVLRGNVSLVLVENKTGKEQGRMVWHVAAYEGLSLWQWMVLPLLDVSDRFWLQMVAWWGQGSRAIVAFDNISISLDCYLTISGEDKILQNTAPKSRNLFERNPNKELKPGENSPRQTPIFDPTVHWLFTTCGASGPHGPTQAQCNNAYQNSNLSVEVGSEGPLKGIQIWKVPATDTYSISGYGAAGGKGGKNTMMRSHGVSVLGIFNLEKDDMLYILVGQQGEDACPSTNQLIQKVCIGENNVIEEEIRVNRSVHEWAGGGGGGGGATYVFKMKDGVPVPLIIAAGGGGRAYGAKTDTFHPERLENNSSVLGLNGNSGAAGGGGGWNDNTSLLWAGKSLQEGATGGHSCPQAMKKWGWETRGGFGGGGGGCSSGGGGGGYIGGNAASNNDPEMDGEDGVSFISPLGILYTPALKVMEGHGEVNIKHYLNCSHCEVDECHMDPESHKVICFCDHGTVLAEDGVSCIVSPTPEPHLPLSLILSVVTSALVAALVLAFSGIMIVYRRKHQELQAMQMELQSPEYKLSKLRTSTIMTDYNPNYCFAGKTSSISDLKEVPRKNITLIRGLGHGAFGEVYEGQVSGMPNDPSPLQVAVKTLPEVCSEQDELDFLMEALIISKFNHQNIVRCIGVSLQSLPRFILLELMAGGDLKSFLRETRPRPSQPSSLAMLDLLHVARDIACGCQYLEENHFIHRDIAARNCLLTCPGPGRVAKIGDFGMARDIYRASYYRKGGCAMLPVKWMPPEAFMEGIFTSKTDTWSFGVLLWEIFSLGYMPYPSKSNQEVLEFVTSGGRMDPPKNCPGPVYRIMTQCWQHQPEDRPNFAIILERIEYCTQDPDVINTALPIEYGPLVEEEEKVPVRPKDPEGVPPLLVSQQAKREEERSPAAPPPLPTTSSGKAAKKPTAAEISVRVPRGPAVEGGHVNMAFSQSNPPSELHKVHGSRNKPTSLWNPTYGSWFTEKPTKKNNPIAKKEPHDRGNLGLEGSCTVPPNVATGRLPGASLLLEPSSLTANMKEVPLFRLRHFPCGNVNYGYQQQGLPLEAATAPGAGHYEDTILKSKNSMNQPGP

`O=C(Nc1cccc(C(F)(F)F)c1)c1ccc(C2CC2)c(-c2ccc3nc(Nc4cnn(C5CC5)c4)ncc3c2)c1` [Compound S15, 4-cyclopropyl-3-(2-((1-cyclopropyl-1H-pyrazol-4-yl)amino)quinazolin-6-yl)-N-(3-(trifluoromethyl)phenyl)benzamide]: the “reduction of expression (mRNA) of Collagen1-α1” value in assay [1] was “about 90%”. Besides, the “reduction of expression (mRNA) of TGF-β1” value in assay [1] is recorded as “about 90%”. In addition, the “reduction of expression (mRNA) of α-SMA” value in assay [1] is listed as “about 90%”. In addition, the 50% inhibitory concentration (IC50) in assay [2] is greater than 0.01 µM; in assay [3], greater than 1 µM; in assay [4], greater than 1 µM; in assay [5] it was greater than 1 µM.
